In brackets after ≈: the same amount, converted by molar mass.
Columns and labels:
[1] = Solubility in water at 25° C.; assay type: physicochemical
leukemia L-1210 = test: Antitumor activity against leukemia L-1210 implanted in BDF1 mice (ILS, 60 days survivors); assay type: in vivo
Excerpt: Test compounds were given to BDF1 mice 24 hrs after implantation of 10^6 cells of leukemia L-1210 in each animal, through single intraperitoneal administration, intraperitoneal administration for 5 successive days, single oral administration or oral administration for 5 successive days, whereupon the increase in life span (referred to as "ILS") and number of 60 days survivors of test animals were estimated, said test of antitumor activity being that according to the method of the National Cancer Center, Tokyo [A. Hoshi et al: Farmashia, 9 (1973), 464]. In the tests, the compounds were dissolved in physiological saline solution just before administration.
^a i.p.: intraperitoneal administration p.o: oral administration
D1 : single administration D1~5 : administration for 5
^b percentage calculated from mean survival time over control
^c survivors/six animals

[2] = Diabetogenic activity (blood glucose concentration after intravenous administration); assay type: in vivo, male Wister rats
Protocol: 40-96 mg/kg of the test compounds were administered intravenously to starved male Wister rats weighing 240-260 g each, and the blood glucose concentrations of the test animals were estimated by the glucose exidase method [L. L. Saloman et al: Anal. Chem., 31 (1959), 453], in which test the compounds were dissolved in physiological saline solution just before administration. […]

Acute toxicity (LD50) = assay type: in vivo, male Wister rats; settings: for LD50 at 168 h: rat, in vivo, after 1 week
Protocol: Test compounds were dissolved in physiological saline solution just before their dosage and administered to male Wister rats, intraperitoneally, intravenously and orally. After 1 week, the LD50 of each compound was calculated from the mortality of the test animals by the Lichfield-Wilcoxon Method.
i.v.: intravenous administration

[3] = Absorption and excretion of 14C-labelled compounds; assay type: in vivo, rats
Protocol: The carbon atom at the 2-position of the chloroethyl group (i.e. ClCH2 CH2 -) of 6DCNU and 6MCαG was labelled with radioactive ^14 C, and the absorption and excretion of these compounds were tested using rats.

[4] = tested on: Bacillus subtilis ATCC 6633; test: Antibacterial activity, broth-dilution method; assay type: cell-based; settings: ATCC6633
Excerpt: (§1) Using 6DCNU and 6MCαG, minimum inhibiting concentrations (referred to as "MIC") for various kinds of bacteria were estimated by means of the broth-dilution method.

[5] = tested on: Escherichia coli NIHJ JC-2; test: Antibacterial activity, broth-dilution method; assay type: cell-based; settings: NIHJJC2
Excerpt: as §1

[6] = tested on: Klebsiella pneumoniae IFM 3008; test: Antibacterial activity, broth-dilution method; assay type: cell-based; settings: IFM3008
Excerpt: as §1

[7] = tested on: Mycobacterium smegmatis ATCC 607; test: Antibacterial activity, broth-dilution method; assay type: cell-based; settings: Mycolicibacterium smegmatis, ATCC607
Excerpt: as §1

[8] = tested on: Proteus vulgaris AHU 1469; test: Antibacterial activity, broth-dilution method; assay type: cell-based; settings: AHU1469
Excerpt: as §1

[9] = tested on: Pseudomonas aeruginosa IFO 3080; test: Antibacterial activity, broth-dilution method; assay type: cell-based; settings: IFO3080
Excerpt: as §1

Sarcina lutea ATCC 9341 = test: Antibacterial activity, broth-dilution method; assay type: cell-based; settings: Micrococcus luteus, ATCC9341
Excerpt: as §1

Shigella sonnei = test: Antibacterial activity, broth-dilution method; assay type: cell-based
Excerpt: as §1

[10] = tested on: Staphylococcus aureus FDA 209P JC-1; test: Antibacterial activity, broth-dilution method; assay type: cell-based; settings: FDA209P
Excerpt: as §1

[11] = tested on: Streptococcus faecalis AHU 1085; test: Antibacterial activity, broth-dilution method; assay type: cell-based; settings: Enterococcus faecalis, AHU1085
Excerpt: as §1

SMILES: O=NN(CCCl)C(=O)NC[C@H]1OC(O)[C@H](O)[C@@H](O)[C@@H]1O (stereo partly drawn) [Example 6DCNU, 3-(D-glucopyranos-6-yl)-1-(2-chloroethyl)-1-nitrosourea]
- solubility ([1]; amount soluble in 1 ml water at 25° C.): 750 mg/mL (≈ 2390 mM)
- solubility in water, comparison in words ([1]; water, 25° C.): higher than that of both DCNU and 2MCαG and is almost equal to that of 6MCαG
- ILS (leukemia L-1210; 3.2 mg/kg/day, i.p. D1~5): > 310%
- Survivors (60 days) (leukemia L-1210; 3.2 mg/kg/day, i.p. D1~5): 2/6
- ILS (leukemia L-1210; 6.3 mg/kg/day, i.p. D1~5): > 410%
- Survivors (60 days) (leukemia L-1210; 6.3 mg/kg/day, i.p. D1~5): 4/6
- ILS (leukemia L-1210; 12.5 mg/kg/day, i.p. D1): > 426%
- Survivors (60 days) (leukemia L-1210; 12.5 mg/kg/day, i.p. D1): 4/6
- ILS (leukemia L-1210; 12.5 mg/kg/day, i.p. D1~5): > 520%
- Survivors (60 days) (leukemia L-1210; 12.5 mg/kg/day, i.p. D1~5): 5/6
- ILS (leukemia L-1210; 12.5 mg/kg/day, p.o. D1~5): > 123%
- ILS (leukemia L-1210; 15.0 mg/kg/day, i.p. D1~5): > 650%
- Survivors (60 days) (leukemia L-1210; 15.0 mg/kg/day, i.p. D1~5): 6/6
- ILS (leukemia L-1210; 20.0 mg/kg/day, i.p. D1~5): > 670%
- Survivors (60 days) (leukemia L-1210; 20.0 mg/kg/day, i.p. D1~5): 6/6
- ILS (leukemia L-1210; 25.0 mg/kg/day, i.p. D1): > 561%
- Survivors (60 days) (leukemia L-1210; 25.0 mg/kg/day, i.p. D1): 5/6
- ILS (leukemia L-1210; 25.0 mg/kg/day, i.p. D1~5): > 540%
- Survivors (60 days) (leukemia L-1210; 25.0 mg/kg/day, i.p. D1~5): 5/6
- ILS (leukemia L-1210; 25.0 mg/kg/day, p.o. D1~5): > 260%
- Survivors (60 days) (leukemia L-1210; 25.0 mg/kg/day, p.o. D1~5): 2/6
- ILS (leukemia L-1210; 30.0 mg/kg/day, i.p. D1~5): > 315%
- Survivors (60 days) (leukemia L-1210; 30.0 mg/kg/day, i.p. D1~5): 3/6
- ILS (leukemia L-1210; 35.0 mg/kg/day, p.o. D1~5): > 390%
- Survivors (60 days) (leukemia L-1210; 35.0 mg/kg/day, p.o. D1~5): 3/6
- ILS (leukemia L-1210; 40.0 mg/kg/day, i.p. D1~5): > 225%
- Survivors (60 days) (leukemia L-1210; 40.0 mg/kg/day, i.p. D1~5): 2/6
- ILS (leukemia L-1210; 50.0 mg/kg/day, i.p. D1): > 606%
- Survivors (60 days) (leukemia L-1210; 50.0 mg/kg/day, i.p. D1): 5/6
- ILS (leukemia L-1210; 50.0 mg/kg/day, p.o. D1~5): > 442%
- Survivors (60 days) (leukemia L-1210; 50.0 mg/kg/day, p.o. D1~5): 3/6
- ILS (leukemia L-1210; 70.0 mg/kg/day, i.p. D1): > 321%
- Survivors (60 days) (leukemia L-1210; 70.0 mg/kg/day, i.p. D1): 3/6
- ILS (leukemia L-1210; 70.0 mg/kg/day, p.o. D1~5): > 370%
- Survivors (60 days) (leukemia L-1210; 70.0 mg/kg/day, p.o. D1~5): 3/6
- ILS (leukemia L-1210; 100.0 mg/kg/day, i.p. D1): -3%
- ILS (leukemia L-1210; 100.0 mg/kg/day, p.o. D1~5): > 246%
- Survivors (60 days) (leukemia L-1210; 100.0 mg/kg/day, p.o. D1~5): 2/6
- ILS (leukemia L-1210; 150.0 mg/kg/day, i.p. D1): -10%
- ILS (leukemia L-1210; 200.0 mg/kg/day, i.p. D1): -34%
- antitumor activity, comparison in words (leukemia L-1210; L-1210, BDF1 mice): superior to that of DCNU, GANU and 2MCαG, and is almost equal to that of 6MCαG
- antitumor activity, in words (leukemia L-1210; mouse, in vivo): excellent antitumor activity
- antitumor activity in oral administration, in words (leukemia L-1210; oral administration): high activity equal to that of 6MCαG in oral administration
- Blood Glucose Concentration ([2]; 40 mg/kg i.v., 0 hr after treatment): 70.4 mg/dL
- Blood Glucose Concentration ([2]; 40 mg/kg i.v., 2 hr after treatment): 73.3 mg/dL
- Blood Glucose Concentration ([2]; 40 mg/kg i.v., 4 hr after treatment): 67.7 mg/dL
- Blood Glucose Concentration ([2]; 40 mg/kg i.v., 7 hr after treatment): 68.2 mg/dL
- Blood Glucose Concentration ([2]; 40 mg/kg i.v., 10 hr after treatment): 68.3 mg/dL
- Blood Glucose Concentration ([2]; 40 mg/kg i.v., 24 hr after treatment): 69.9 mg/dL
- Blood Glucose Concentration ([2]; 40 mg/kg i.v., 48 hr after treatment): 73.8 mg/dL
- Blood Glucose Concentration ([2]; 60 mg/kg i.v., 0 hr after treatment): 72.0 mg/dL
- Blood Glucose Concentration ([2]; 60 mg/kg i.v., 2 hr after treatment): 74.2 mg/dL
- Blood Glucose Concentration ([2]; 60 mg/kg i.v., 4 hr after treatment): 78.3 mg/dL
- Blood Glucose Concentration ([2]; 60 mg/kg i.v., 7 hr after treatment): 76.8 mg/dL
- Blood Glucose Concentration ([2]; 60 mg/kg i.v., 10 hr after treatment): 79.2 mg/dL
- Blood Glucose Concentration ([2]; 60 mg/kg i.v., 24 hr after treatment): 78.7 mg/dL
- Blood Glucose Concentration ([2]; 60 mg/kg i.v., 48 hr after treatment): 79.4 mg/dL
- Blood Glucose Concentration ([2]; 77 mg/kg i.v., 0 hr after treatment): 72.4 mg/dL
- Blood Glucose Concentration ([2]; 77 mg/kg i.v., 2 hr after treatment): 75.3 mg/dL
- Blood Glucose Concentration ([2]; 77 mg/kg i.v., 4 hr after treatment): 75.8 mg/dL
- Blood Glucose Concentration ([2]; 77 mg/kg i.v., 7 hr after treatment): 79.8 mg/dL
- Blood Glucose Concentration ([2]; 77 mg/kg i.v., 10 hr after treatment): 76.2 mg/dL
- Blood Glucose Concentration ([2]; 77 mg/kg i.v., 24 hr after treatment): 78.2 mg/dL
- Blood Glucose Concentration ([2]; 77 mg/kg i.v., 48 hr after treatment): 80.5 mg/dL
- blood glucose concentrations versus control, in words ([2]; i.v., rats): substantially the same blood glucose concentrations as that in the control
- diabetogenic activity, in words ([2]; rat, in vivo): low diabetogenic activity
- LD50 at 168 h (Acute toxicity (LD50); ip): 90 mg/kg
- LD50 at 168 h (Acute toxicity (LD50); iv): 85 mg/kg
- LD50 at 168 h (Acute toxicity (LD50); po): 132 mg/kg
- LD50, comparison in words (Acute toxicity (LD50); rats): higher than that of the other known compounds
- absorption, in words ([3]; rats, 14C-labelled): absorbed well
- excretion rate, intravenous versus oral administration, in words ([3]; rats, 14C-labelled): almost the same excretion rates
- main route of excretion, in words ([3]; rats, 14C-labelled): excreted mainly in the urine
- excretion in faeces, comparison in words ([3]; versus 6MCαG): excreted more than 6MCαG in faeces
- excretion velocity, comparison in words ([3]; versus 6MCαG): more rapid than that of 6MCαG
- toxicity inferred from excretion, in words ([3]; versus 6MCαG): less toxic than 6MCαG
- MIC [4]: > 200 µg/mL
- MIC [5]: > 200 µg/mL
- MIC [6]: > 200 µg/mL
- MIC [7]: > 200 µg/mL
- MIC [8]: > 200 µg/mL
- MIC [9]: > 200 µg/mL
- MIC (Sarcina lutea ATCC 9341): > 200 µg/mL
- MIC (Shigella sonnei): > 200 µg/mL
- MIC [10]: > 200 µg/mL
- MIC [11]: > 200 µg/mL

From patent US4156777A, “Process for producing glucopyranose-nitrosourea compounds and novel compounds included therein” (Tokyo Tanabe Company, Limited, priority 1977, dated 1979)
